The record followed here is patent US20030118514A1, “Compositions for inhalation” (Glaxo Wellcome Inc., priority 1998, published 2003).

Where two headings read alike, the source gives them in different places.

A short description of data set [1]: Fine particle fraction of salbutamol sulphate blended with Lactochem lactose (Example 7). It counts as physicochemical. The conditions noted are these: after blending with Lactochem lactose.
The nature of data set [2]: Mass median diameter of salbutamol sulphate particles. It counts as physicochemical.

For “salbutamol sulphate [recrystallised salbutamol sulphate]”, the “fine particle fraction (<6.4 μm)” value in data set [1] was found to be 22.8 % recovered dose. This substance also had a mass median diameter in data set [2] (listed as elongated crystals (needle shaped) of salbutamol sulphate) of 5.49 μm.
In the case of “salbutamol sulphate [micronised salbutamol sulphate]”, the “fine particle fraction (<6.4 μm)” value in data set [1] turned out to be 10.8 % recovered dose. In addition, the mass median diameter in data set [2] is 4.79 μm.
